Results as given in patent publication US20230040770A1, “HETEROCYCLIC COMPOUND AND USE THEREOF” (TAKEDA PHARMACEUTICAL COMPANY LIMITED, priority 2019, published 2023).

The molecules below were run against T1, human orexin type 2 receptor (Homo sapiens, UniProt O43614) (assay: Measurement of orexin type 2 receptor agonist activity (calcium indicator fluorescence, CHO cells forcibly expressing human OX2 receptor)). Settings: compound at 3 μM; 0% = DMSO, 100% = orexin A (human) 10 nM.
T1 construct: expressed in transfected cells
T1 sequence (O43614 1-444): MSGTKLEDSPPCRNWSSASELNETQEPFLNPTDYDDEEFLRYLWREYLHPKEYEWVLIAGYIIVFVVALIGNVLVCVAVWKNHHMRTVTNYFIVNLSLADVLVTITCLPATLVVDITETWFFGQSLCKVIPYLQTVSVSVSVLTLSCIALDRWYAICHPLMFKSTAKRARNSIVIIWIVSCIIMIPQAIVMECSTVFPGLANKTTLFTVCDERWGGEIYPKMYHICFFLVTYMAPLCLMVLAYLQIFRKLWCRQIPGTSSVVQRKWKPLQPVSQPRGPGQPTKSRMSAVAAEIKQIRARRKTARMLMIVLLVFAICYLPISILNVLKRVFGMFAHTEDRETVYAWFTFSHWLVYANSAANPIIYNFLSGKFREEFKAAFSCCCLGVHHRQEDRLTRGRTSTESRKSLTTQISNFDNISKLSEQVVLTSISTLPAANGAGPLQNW
Type: cell-based
Summary of the method: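 CHO-dhfr cells stably expressing human OX2R, loaded with Fluo-4 AM (30 min 37 °C, then 30 min RT), then given test compound. Calcium fluorescence read by FDSS over ~2 min. Activity (%) scaled from DMSO (0%) to 10 nM final orexin A (100%).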

| SMILES | OX2R agonist activity (3 μM, %) |
| --- | --- |
| CCS(=O)(=O)N[C@@H]1[C@H](Cc2cccc(-c3cc(C)cc(F)c3)c2F)N(C(=O)N(C)C)CC1(F)F [Example 447, (2S,3R)-2-[(2,3′-difluoro-5′-methyl[1,1′-biphenyl]-3-yl)methyl]-3-[(ethanesulfonyl)amino]-4,4-difluoro-N,N-dimethylpyrrolidine-1-carboxamide] | 95% |
| CCS(=O)(=O)N[C@@H]1[C@H](Cc2cccc(-c3cccc(F)c3)c2F)N(C(=O)[C@H]2CCCO2)CC1(F)F [Example 453, N-{(2S,3R)-2-[(2,3′-difluoro[1,1′-biphenyl]-3-yl)methyl]-4,4-difluoro-1-[(2R)-oxolane-2-carbonyl]pyrrolidin-3-yl}ethanesulfonamide] | 85% |
| CCS(=O)(=O)N[C@@H]1[C@H](Cc2cccc(-c3cccc(F)c3F)c2F)N(C(=O)[C@H]2CCCO2)CC1(F)F [Example 455, N-{(2S,3R)-4,4-difluoro-1-[(2R)-oxolane-2-carbonyl]-2-[(2,2′,3′-trifluoro[1,1′-biphenyl]-3-yl)methyl]pyrrolidin-3-yl}ethanesulfonamide] | 85% |
| CCS(=O)(=O)N[C@@H]1[C@H](Cc2cccc(-c3cc(F)ccc3F)c2F)N(C(=O)[C@H]2CCCO2)CC1(F)F [Example 456, N-{(2S,3R)-4,4-difluoro-1-[(2R)-oxolane-2-carbonyl]-2-[(2,2′,5′-trifluoro[1,1′-biphenyl]-3-yl)methyl]pyrrolidin-3-yl}ethanesulfonamide] | 77% |
| CCS(=O)(=O)N[C@@H]1[C@H](Cc2cccc(-c3cccc(C(F)F)c3)c2F)N(C(=O)[C@H]2CCCO2)CC1(F)F [Example 457, N-{(2S,3R)-2-{[3′-(difluoromethyl)-2-fluoro[1,1′-biphenyl]-3-yl]methyl}-4,4-difluoro-1-[(2R)-oxolane-2-carbonyl]pyrrolidin-3-yl}ethanesulfonamide] | 80% |
| CN(C)S(=O)(=O)N[C@H]1[C@@H](F)CN(C(=O)N2CCC2)[C@H]1Cc1cccc(-c2cc(F)cc(F)c2)c1F [Example 458, N′-{(2S,3R,4S)-1-(azetidine-1-carbonyl)-4-fluoro-2-[(2,3′,5′-trifluoro[1,1′-biphenyl]-3-yl)methyl]pyrrolidin-3-yl}-N,N-dimethylsulfuric diamide] | 84% |
| CCS(=O)(=O)N[C@@H]1[C@H](Cc2cccc(-c3cccc(C)c3)c2F)N(C(=O)C(C)(C)O)CC1(F)F [Example 465, N-[(2S,3R)-4,4-difluoro-2-[(2-fluoro-3′-methyl[1,1′-biphenyl]-3-yl)methyl]-1-(2-hydroxy-2-methylpropanoyl)pyrrolidin-3-yl]ethanesulfonamide] | 106% |
| CCS(=O)(=O)N[C@@H]1[C@H](Cc2cccc(-c3ccc(F)c(C)c3)c2F)N(C(=O)C(C)(C)O)CC1(F)F [Example 466, N-[(2S,3R)-2-[(2,4′-difluoro-3′-methyl[1,1′-biphenyl]-3-yl)methyl]-4,4-difluoro-1-(2-hydroxy-2-methylpropanoyl)pyrrolidin-3-yl]ethanesulfonamide] | 103% |
| O=C(C1CCO1)N1C[C@H](F)[C@H](NS(=O)(=O)C2CC2)[C@@H]1Cc1cccc(-c2cc(F)cc(F)c2)c1F (stereo partly drawn) [Example 479, N-{(2S,3R,4S)-4-fluoro-1-(oxetane-2-carbonyl)-2-[(2,3′,5′-trifluoro[1,1′-biphenyl]-3-yl)methyl]pyrrolidin-3-yl}cyclopropanesulfonamide] | 93% |
| O=C(C1CCO1)N1C[C@H](F)[C@H](NS(=O)(=O)C2CC2)[C@@H]1Cc1cccc(-c2cccc(F)c2F)c1F (stereo partly drawn) [Example 480, N-{(2S,3R,4S)-4-fluoro-1-(oxetane-2-carbonyl)-2-[(2,2′,3′-trifluoro[1,1′-biphenyl]-3-yl)methyl]pyrrolidin-3-yl}cyclopropanesulfonamide] | 101% |
| O=C(C1CCO1)N1C[C@H](F)[C@H](NS(=O)(=O)C2CC2)[C@@H]1Cc1cccc(-c2cc(F)ccc2F)c1F (stereo partly drawn) [Example 481, N-{(2S,3R,4S)-4-fluoro-1-(oxetane-2-carbonyl)-2-[(2,2′,5′-trifluoro[1,1′-biphenyl]-3-yl)methyl]pyrrolidin-3-yl}cyclopropanesulfonamide] | 104% |

Further lines, results first:

| OX2R agonist activity (3 μM, %) | SMILES |
| --- | --- |
| 84% | CCS(=O)(=O)N[C@@H]1[C@H](Cc2cccc(-c3cc(F)cc(F)c3)c2F)N(C(=O)[C@H]2CCCO2)CC1(F)F [Example 454, N-{(2S,3R)-4,4-difluoro-1-[(2R)-oxolane-2-carbonyl]-2-[(2,3′,5′-trifluoro[1,1′-biphenyl]-3-yl)methyl]pyrrolidin-3-yl}ethanesulfonamide] |
| 105% | CCS(=O)(=O)N[C@@H]1[C@H](Cc2cccc(-c3ccc(F)c(F)c3)c2F)N(C(=O)C2CCO2)CC1(F)F (stereo partly drawn) [Example 467, N-{(2S,3R)-4,4-difluoro-1-(oxetane-2-carbonyl)-2-[(2,3′,4′-trifluoro[1,1′-biphenyl]-3-yl)methyl]pyrrolidin-3-yl}ethanesulfonamide] |
| 102% | CCS(=O)(=O)N[C@@H]1[C@H](Cc2cccc(-c3ccc(F)c(F)c3)c2F)N(C(=O)C2CCO2)CC1(F)F (stereo partly drawn) [Example 468, N-{(2S,3R)-4,4-difluoro-1-(oxetane-2-carbonyl)-2-[(2,3′,4′-trifluoro[1,1′-biphenyl]-3-yl)methyl]pyrrolidin-3-yl}ethanesulfonamide] |
| 91% | CCS(=O)(=O)N[C@@H]1[C@H](Cc2cccc(-c3cc(F)c(F)cc3F)c2F)N(C(=O)C2CCO2)CC1(F)F (stereo partly drawn) [Example 469, N-{(2S,3R)-4,4-difluroo-1-(oxetane-2-carbonyl)-2-[(2,2′,4′5′-tetrafluoro[1,1′-biphenyl]-3-yl)methyl]pyrrolidin-3-yl}ethanesulfonamide] |
| 103% | CCS(=O)(=O)N[C@@H]1[C@H](Cc2cccc(-c3ccc(F)c(F)c3F)c2F)N(C(=O)C2CCO2)CC1(F)F (stereo partly drawn) [Example 470, N-{(2S,3R)-4,4-difluoro-1-(oxetane-2-carbonyl)-2-[(2,2′,3′,4′-tetrafluoro[1,1′-biphenyl]-3-yl)methyl]pyrrolidin-3-yl}ethanesulfonamide] |
| 94% | CCS(=O)(=O)N[C@@H]1[C@H](Cc2cccc(-c3ccc(F)c(F)c3F)c2F)N(C(=O)C2CCO2)CC1(F)F (stereo partly drawn) [Example 471, N-{(2S,3R)-4,4-difluoro-1-(oxetane-2-carbonyl)-2-[(2,2′,3′,4′-tetrafluoro[1,1′-biphenyl]-3-yl)methyl]pyrrolidin-3-yl}ethanesulfonamide] |
| 95% | CCS(=O)(=O)N[C@@H]1[C@H](Cc2cccc(-c3ccc(F)c(C)c3)c2F)N(C(=O)C2CCO2)CC1(F)F (stereo partly drawn) [Example 472, N-[(2S,3R)-2-[(2,4′-difluoro-3′-methyl[1,1′-biphenyl]-3-yl)methyl]-4,4-difluoro-1-(oxetane-2-carbonyl)pyrrolidin-3-yl]ethanesulfonamide] |
| 97% | CCS(=O)(=O)N[C@@H]1[C@H](Cc2cccc(-c3cc(F)c(F)c(F)c3)c2F)N(C(=O)C2CCO2)CC1(F)F (stereo partly drawn) [Example 473, N-{(2S,3R)-4,4-difluoro-1-(oxetane-2-carbonyl)-2-[(2,3′,4′,5′-tetrafluoro[1,1′-biphenyl]-3-yl)methyl]pyrrolidin-3-yl}ethanesulfonamide] |
| 96% | CCS(=O)(=O)N[C@@H]1[C@H](Cc2cccc(-c3ccc(F)c(C)c3F)c2F)N(C(=O)C2CCO2)CC1(F)F (stereo partly drawn) [Example 474, N-{(2S,3R)-4,4-difluoro-1-(oxetane-2-carbonyl)-2-[(2,2′,4′-trifluoro-3′-methyl[1,1′-biphenyl]-3-yl)methyl]pyrroldiin-3-yl}ethanesulfonamide] |
| 100% | CCS(=O)(=O)N[C@@H]1[C@H](Cc2cccc(-c3cc(F)c(F)c(F)c3)c2F)N(C(=O)C2CCO2)CC1(F)F (stereo partly drawn) [Example 475, N-{(2S,3R)-4,4-difluoro-1-(oxetane-2-carbonyl)-2-[(2,3′,4′,5′-tetrafluoro[1,1′-biphenyl]-3-yl)methyl]pyrrolidin-3-yl}ethanesulfonamide] |
| 100% | CCS(=O)(=O)N[C@@H]1[C@H](Cc2cccc(-c3ccc(F)c(C)c3)c2F)N(C(=O)C2CCO2)CC1(F)F (stereo partly drawn) [Example 476, N-[(2S,3R)-2-[(2,4′-difluoro-3′-methyl[1,1′-biphenyl]-3-yl)methyl]-4,4-difluoro-1-(oxetane-2-carbonyl)pyrrolidin-3-yl]ethanesulfonamide] |
| 96% | CCS(=O)(=O)N[C@@H]1[C@H](Cc2cccc(-c3cc(F)c(F)cc3F)c2F)N(C(=O)C2CCO2)CC1(F)F (stereo partly drawn) [Example 477, N-{(2S,3R)-4,4-difluoro-1-(oxetane-2-carbonyl)-2-[(2,2′,4′,5′-tetrafluoro[1,1′-biphenyl]-3-yl)methyl]pyrrolidin-3-yl}ethanesulfonamide] |
| 103% | CCS(=O)(=O)N[C@@H]1[C@H](Cc2cccc(-c3ccc(F)c(C)c3F)c2F)N(C(=O)C2CCO2)CC1(F)F (stereo partly drawn) [Example 478, N-{(2S,3R)-4,4-difluoro-1-(oxetane-2-carbonyl)-2-[(2,2′,4′-trifluoro-3′-methyl[1,1′-biphenyl]-3-yl)methyl]pyrroldiin-3-yl}ethanesulfonamide] |
